# Measured values reported in PMC12250347, “Calcium-dependent pathway as a primary cause of hypoxic RGC damage in monkey retinal explants” (PLOS One, 2025).
# “Also recorded” adds a separate entry of the source.
# Columns and labels:
# [1] = tested on: calpains 1 and 2 in monkey retinal lysate; test: In vitro inhibitory assay of calpains from retinal lysate (CaCl2, immunoblotting); format: biochemical; details: non-cultured monkey retina lysate, 10 mM CaCl2, 2 hr, 37°C; inhibitor at 1, 10 and 100 µM
# Method: (§1) Each retinal explant was sonicated in RIPA Lysis and Extraction Buffer (Thermo Fisher Scientific), with protease inhibitors cocktail (Complete Mini-EDTA-free; MilliporeSigma). Protein concentrations in lysates were measured by BCA assay (Pierce BCA Protein Assay Kit, Thermo Fisher Scientific) using bovine serum albumin as a standard. For immunoblotting, 5 μg of each sample was loaded and run on 4% to 12% gradient or 10% SDS-PAGE gels (NuPAGE Bis-Tris Protein Gels, Thermo Fisher Scientific) with 2-(N-morpholino)ethanesulfonic acid buffer or 3-(N-morpholino) propanesulfonic acid buffer (Thermo Fisher Scientific). Proteins were then electrotransferred to a polyvinylidene fluoride membrane (MilliporeSigma) at 100 V for 60 min or 1.5 hr. Membranes were then blocked with 5% skim milk in Tris-buffer saline (Bio-Rad Laboratories, Hercules, CA, USA) containing 0.05% Tween 20. Each membrane was probed with primary antibodies against α-spectrin (1:2000 dilution, Enzo Life Sciences, Farmingdale, NY, USA), SBDP150 (1:1000 dilution, Senju Pharmaceutical), calpain 1 (1:1000 dilution, Thermo Fisher Scientific), calpain 2 (1:500, GeneTex, Irvine, CA, USA), cathepsin K (1:500 dilution, Abcam), and β-actin (1:1000 dilution, Merck). For calpain 1, immunoreactivity was visualized using a secondary antibody conjugated to alkaline phosphatase and the AP Conjugate Substrate Kit (Bio-Rad Laboratories). For other proteins, immunoreactivities were visualized using secondary antibodies conjugated with rabbit (Santa Cruz Biotechnology) or mouse horseradish peroxidase enzyme (Cytiva, Wilmington, DE, USA) and ECL Plus detection reagents (Cytiva). Images of the membranes were captured with FluorChem FC2 imager (Cell Biosciences, Santa Clara, CA, USA). The conversion of pro-cathepsin K (38 kDa) to its mature form (27 kDa) was used as an indicator of cathepsin K activation.
# To confirm the isozyme specificities of calpain inhibitors in vitro, non-cultured monkey retinas were sonicated in a buffer containing 20 mM Tris (pH 7.5), 5 mM EGTA, 5 mM EDTA, 2 mM DTE. […]
# [2] = tested on: purified porcine calpain 2; test: Calpain-Glo Protease Assay; format: biochemical; details: 5 mM CaCl2, 10 min, room temperature; mean of two experiments
# Excerpt: The porcine kidney was obtained from DART Co., Ltd. as part of a program aimed at the effective utilization of livestock by-products in Hokkaido, Japan. The procurement process followed ethical guidelines from Livestock Industry Bureau MAFF-J (ministry of agriculture, forestry and fisheries of Japan) for farm animal use, ensuring compliance with relevant regulations. Two porcine kidneys were rapidly frozen after removal, trimmed free of excess tissue or renal pelvis, and cut into small pieces (approximately 2 × 2 cm) before they thawed. About 250 g of these pieces were homogenized in 1200 mL of ice-cold 20 mM Tris-HCl (pH 8.0) with 5 mM ethylenediaminetetraacetic acid (EDTA), 0.1% 2-mercaptoethanol (2-ME), 0.1 mg/mL Pefabloc SC (MilliporeSigma, Burlington, MA, USA), 40 µg/mL bestatin, and 4 µg/mL pepstatin in a Waring blender HGBSS (Waring; Stamford, CT, USA) at 19,000 rpm using several bursts of 10 sec each with 20 sec cooling periods between each burst. The homogenate was centrifuged at 25,000 × g for 15 min at 4°C, and the supernatant was filtered through glass wool and a 5 µm filter (Merck) to remove floating lipids. The purification procedure was performed according to the method of Thompson and Goll with some minor modifications: the DEAE-cellulose and the DEAE-TSK ToyoPearl 650S columns were substituted with DEAE sepharose fast flow (Merck) and TSKgel DEAE-5PW (30) (Tosoh; Tokyo, Japan) columns, respectively. After purification, calpain-2 was dialyzed, and glycerol was added for freeze-thaw protection. The final buffer formulation was 20 mM imidazole, 5 mM 2-ME, 1 mM EDTA, 1 mM EGTA, and 20% glycerol.
# (§2) For measurement of inhibitory activities against calpains in vitro, Calpain-Glo Protease Assay (Promega; Madison, WI, USA) was performed using human erythrocyte calpain 1 (MilliporeSigma) and purified porcine calpain 2. Briefly, 24 µL of each calpain diluted with 20 mM Tris-HCl (pH 7.4), 1 µL of each inhibitor, and 25 µL of reaction buffer including CaCl2 in a 96-well plate was incubated for 10 min at room temperature. The final concentration of CaCl2 in the reaction solution was 5 mM. The luminescence was measured using a microplate reader (GloMax Discover System; Promega). IC50 values from two independent experiments were averaged.
# [3] = biological target: T1, human erythrocyte calpain 1 (Homo sapiens, UniProt P07384); test: Calpain-Glo Protease Assay; format: biochemical; details: 5 mM CaCl2, 10 min, room temperature; mean of two experiments
# T1 construct: human erythrocyte calpain 1 (MilliporeSigma); purchased MilliporeSigma; host or cells: human erythrocytes
# T1 sequence (P07384 1-714): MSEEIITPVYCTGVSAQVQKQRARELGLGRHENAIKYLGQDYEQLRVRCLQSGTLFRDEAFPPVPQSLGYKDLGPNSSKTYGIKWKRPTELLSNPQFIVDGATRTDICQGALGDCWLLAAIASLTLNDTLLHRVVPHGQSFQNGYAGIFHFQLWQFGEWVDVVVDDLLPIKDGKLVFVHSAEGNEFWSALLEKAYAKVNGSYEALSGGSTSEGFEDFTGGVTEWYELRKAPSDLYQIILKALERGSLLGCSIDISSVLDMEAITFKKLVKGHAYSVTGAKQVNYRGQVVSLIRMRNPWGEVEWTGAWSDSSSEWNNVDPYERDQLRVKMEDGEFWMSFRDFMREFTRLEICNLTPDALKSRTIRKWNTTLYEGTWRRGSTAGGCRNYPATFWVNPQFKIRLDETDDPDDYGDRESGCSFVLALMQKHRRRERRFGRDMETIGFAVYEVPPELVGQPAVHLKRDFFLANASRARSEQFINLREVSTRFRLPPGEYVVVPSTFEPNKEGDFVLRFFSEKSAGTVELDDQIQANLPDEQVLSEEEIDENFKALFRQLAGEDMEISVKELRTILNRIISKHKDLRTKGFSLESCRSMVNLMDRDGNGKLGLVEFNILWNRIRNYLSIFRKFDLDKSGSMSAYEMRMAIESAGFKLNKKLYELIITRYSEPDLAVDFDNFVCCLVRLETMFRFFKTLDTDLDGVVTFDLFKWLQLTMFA
# T1 sequence (P04632 1-268 partner): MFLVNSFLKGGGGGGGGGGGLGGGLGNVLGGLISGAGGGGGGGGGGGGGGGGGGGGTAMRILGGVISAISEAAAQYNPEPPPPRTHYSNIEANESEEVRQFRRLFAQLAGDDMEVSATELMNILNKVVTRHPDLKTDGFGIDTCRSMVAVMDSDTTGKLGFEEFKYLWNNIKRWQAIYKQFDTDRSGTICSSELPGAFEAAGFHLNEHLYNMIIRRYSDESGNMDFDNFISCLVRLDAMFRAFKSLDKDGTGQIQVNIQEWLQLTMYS
# Method: as §2
# [4] = tested on: calpain-specific SBDP150 in nerve fiber layer (NFL); test: SBDP150 immunostaining of flat-mounted retinal explants under hypoxia/reoxygenation; format: cell-based, rhesus macaques (Macaca mulatta); details: H16R8
# Method: (§3) Retina explant culture was performed as described in our previous report, except for the induction of hypoxia. Briefly, a hypoxic chamber (Coy Laboratory Products, Grass Lake, MI, USA) was controlled at 0.3% oxygen with a 95% N2/5% CO2 gas mixture. Retinas were dissected into fan-shaped explants with 6 or 7 petals (> 5 mm) in HBSS. Each explant was placed with the RGC side facing up on a Millicell organotypic standing insert (0.4 μm, 30 mm diameter, MilliporeSigma) in six-well, culture plates. They were cultured for 2 hr at 37°C under 95% N2/5% CO2 in Neurobasal-A medium supplemented with B27, N2 supplements, 2 mM L-glutamine (Thermo Fisher Scientific, Waltham, MA, USA), and 100 μg/mL primocin (Invivogen, San Diego, CA, USA). Retinal explants were then chamber-cultured under hypoxic conditions for 16 hr in a culture medium with 0.5 mM glucose, under 0.3% oxygen. The retinas were then re-oxygenated for 8 hr in a culture medium with 5.5 mM glucose. Normoxic control retinas were cultured for 24 hr in a culture medium with 5.5 mM glucose. When present, calpain inhibitors (SNJ-1945, PD-151746, C2I, and ABT-957) and cathepsin inhibitors (Odanacatib and SID26681509) in 0.1% DMSO were used at the final concentration of 10 or 100 μM in the medium. BAPTA (Thermo Fisher Scientific) and BAPTA-AM (Thermo Fisher Scientific) were also used at a final concentration of 3 or 10 mM or a final concentration of 100 or 500 μM, respectively.
# (§4) All inhibitors and BAPTA were treated simultaneously with hypoxia induction, and BAPTA-AM treatment was 2 hr before hypoxia induction.
# Formalin-fixed retinal explants were incubated overnight at −30°C in 1: 4 dilutions of DMSO-ethanol to promote antibody penetration. The explants underwent two cycles of freezing and thawing between −80°C and room temperature in 100% ethanol for 20 min. The retinas were then rehydrated in 70%, 50%, and 15% ethanol and PBS for 20 min each, followed by overnight incubation with 0.2% Triton X-100. The samples were stained with antibodies specific for calpain-specific SBDP150 [8] (1:100 dilution, Senju Pharmaceutical) and β-III tubulin (a neuron marker, 1:500 dilution, Merck). The nerve fiber layer (NFL) was observed approximately 5 mm from the tips of the fan-shaped retinal flat mounts. Confocal images were taken using a model LSM 880 spectral confocal system with a 20x 0.8 NA lens (Carl Zeiss, Oberkochen, Germany).
# [5] = tested on: RGCs in monkey retinal explants; test: PI staining and RGC counting in retinal explants under hypoxia/reoxygenation; format: cell-based, rhesus macaques (Macaca mulatta); details: H16R8; calcium chelator at higher concentration (BAPTA 10 mM; BAPTA-AM 0.5 mM, 2 hr before hypoxia)
# Excerpt: Globes were obtained from rhesus macaques (Macaca mulatta) at 1–7 years of age from the Oregon National Primate Research Center (Beaverton, OR, USA). The wide range of ages was unavoidable because they became available from experiments that were unrelated to the present studies. These eyes were acceptable for the purpose of our experiments. The eyes were dissected within 5 hr after death, and excised eyes were soaked in cold Hanks’ balanced salt solution (HBSS; Corning, NY, USA) or Dulbecco’s phosphate-buffered saline (DPBS; Corning). Experimental animals were handled in accordance with the Research in Vision and Ophthalmology Statement for the Use of Animals in Ophthalmic and Vision Research and with the Guiding Principles in the Care and Use of Animals (Department of Health Education and Welfare Publication National Institutes of Health 80−23).
# as §3, §4
# To assess the disruption of membrane barrier function, propidium iodide (PI) was utilized. Following hypoxia/reoxygenation treatment, retinal explants were incubated for 20 min in a medium containing a final concentration of 2 μg/ml of PI. For quantitative analysis, the RGC marker, RNA-binding protein with multiple splicing (RBPMS) was used at a 1:100 dilution (PhosphoSolutions, Aurora, CO, USA). RBPMS-positive and PI-positive cells in the ganglion cell layer were counted in 2 images from 2 square areas (775 × 775 μm each) located 3–5 mm and 5–7 mm away from the tips of the fan-shaped retinal flat mounts. The percentage of PI-positive RGCs was calculated as [the number of PI and RBPMS-double positive cells/the number of all RBPMS-positive cells] × 100.
# [6] = tested on: calpain 1 activation and proteolysis of α-spectrin; test: Immunoblotting of retinal explants under hypoxia/reoxygenation; format: cell-based, rhesus macaques (Macaca mulatta); details: H16R8; BAPTA 3 or 10 mM, BAPTA-AM 0.1 or 0.5 mM
# Method: as §3, §4, §1
Compound,Effect on calcium-induced activation (autolysis) of calpains 1 and 2 and SBDP150 in retinal lysate [1],IC50 [2] [nM],IC50 [3] [nM],Effect on SBDP150 staining in NFL ([4]; BAPTA-AM 500 μM),Effect on RGC damage (PI-positive RGCs) [5],Effect on activation of calpain 1 and proteolysis of α-spectrin (immunoblot) [6],Effect on SBDP150 staining in NFL ([4]; BAPTA at lower concentration (3 mM))
O=C(O)/C(S)=C/c1c[nH]c2ccc(F)cc12 [PD-151746],"also inhibited calpain activation, but not as strongly as SNJ-1945 and ABT-957",249,150,,,,
O=C(NC1CC1)C(=O)C(Cc1ccccc1)NC(=O)[C@H]1CCC(=O)N1Cc1ccccc1 (stereo partly drawn) [ABT-957],inhibited the activation of both calpain 1 and calpain 2 in a dose-dependent manner,429,403,,,,
CC(=O)OCOC(=O)CN(CC(=O)OCOC(C)=O)c1ccccc1OCCOc1ccccc1N(CC(=O)OCOC(C)=O)CC(=O)OCOC(C)=O [BAPTA-AM],,,,inhibited the increase in SBDP150 staining,partial,mitigated,
O=C(O)CN(CC(=O)O)c1ccccc1OCCOc1ccccc1N(CC(=O)O)CC(=O)O [BAPTA],,,,,almost completely inhibited,mitigated; also recorded: inhibited the autolytic activation of calpain 1,reduced SBDP150 staining
